Columns and labels:
[1] = test system: bone marrow derived macrophages (BMDM); assay: IL-6 and IL-12 levels in BMDM culture supernatants by ELISA; type: cell-based, mice
Description: Ku70^−/− and Ku80^−/− mice and their wild-type (wt) control on the 129 genetic background were generated by Dr. G. Li and bred at Memorial Sloan-Kettering Cancer Center (MSKCC), New York, N.Y. BMDM from wt, Ku70^−/− and Ku80^−/− mice (MSKCC) were prepared as was previously published (Martin-Orozco et al. (1999) Int. Immunol. 11:1111), and maintained in DMEM with 10% FBS, antibiotics and 20% L-cell medium and cultured for about 10 days to allow them to mature. BMDM were seeded (2.5×10^5/well in triplicate) on 96-well plates and treated with LPS (10 μg/ml), ISS-ODN (5 μg/ml) or M-ODN (5 μg/ml).
BMDM (2.5×10^5/well) from wt, or Ku70^−/− and Ku80^−/− mice were treated with LPS (1 μg/ml), ISS-ODN (5 μg/ml) or M-ODN (5 μg/ml) for 24 hours. IL-6 (A) or IL-12 (B) levels in the supernatants were determined by ELISA. Results are means±S.D, of 5 separate experiments for wt and Ku70^−/− and 3 separate experiments for Ku80^−/− mice. (C) BMDM were incubated with LPS (10 μg/ml) or ISS-ODN (5 μg/ml) for 6.5 hours. Total RNA was isolated and analyzed for the presence of IL-6, IL-12 and GAPDH messages by a Northern blot assay, as described in Example 1. Results are means±S.D. of 5 separate experiments for wt and Ku70^−/− and 3 separate experiments for Ku80^−/− mice.
DNA-PKcs^−/− and their wt control mice on the 129 genetic background were generated by Dr. G. C. Li and bred at Memorial Sloan-Kettering Cancer Center, New York, N.Y. IKKβ^−/− Tnfr1^−/− mice were generated by Drs. Z-W Li and Karin M. ATM^−/− mice on the C57BL/6 background were generated and bred by Dr. Y. Xu (UCSD) as was previously described (Xu et al.(1996) Genes Dev. 10:2411-2422) while their wild-type (wt) control were purchased from Jackson Laboratories (Bar Harbor, Me.). BMDMs from wt, DNA-PKcs^−/− mice, IKKβ^−/− Tnfr1^−/− and ATM^−/− mice were prepared as was previously published (Martin-Orozco et al. (1999) Intl. Immunol. 11:1111-1118), maintained in DMEM with 10% FBS, antibiotics and 20% L-cell medium and cultured for 7-10 days to allow them to mature. Prior to use BMDM were seeded (2.5×10^5/well in triplicate) in 96-well plates and than treated with LPS (1 μg/ml), ISS-ODN (5 μg/ml) or M-ODN (5 μg/ml), po-ISS-ODN (10 μg/ml) or po-ds-ISS-ODN (10 μg/ml), LPS-free, ultra pure bacterial DNA (E. coli, Sigma) (15 μg/ml) or methylated bacterial DNA or LPS-free, ultra pure calf thymus DNA (Sigma) (15 μg/ml). Methylation of bacterial DNA was performed by SssI methylase (Biolab, Boston, Mass.) (15 μg/ml) following manufacturer's instruction. Where indicated the PI3K inhibitor wortmannin (Wm), at various concentrations, was added to ISS-ODN or LPS stimulated BMDMs. After 24 hours in culture, the supernatants were collected and assayed for IL-6 and IL-12 levels by ELISA kits (PharMingen, San Diego, Calif.).

IKKβ = assay: In vitro IKK kinase assay: recombinant IKKβ incubated with DNA-PK with or without ISS-ODN; type: biochemical
Description: The ODNs (ps-ss) used include an ISS-ODN with an active CpG motif (AACGTT), a methylated ISS-ODN at the ^5C of the CpG dinucleotide (AA*CGTT) and various control ODNs. These ODNs were incubated at concentrations of 0, 0.1, 0.3, or 1 ng/reaction. The po-ISS-ODN was incubated at concentration of 20, 50 or 100 ng/reaction. The po-ds-ISS-ODN was incubated at concentration of 0, 0.5, 1, 2, 5 or 10 ng/reaction. The bacterial or calf thymus DNAs were each incubated at concentration of 1, 2 or 5 ng/reaction. Electrophoretic gel mobility shift assay (EMSA) was performed as previously described. Chu et al. (1999) Immunity 11:721-731; and Li et al., 1999, supra). In vitro IKK kinase assays were performed using purified IKK derived from Sf9 insect cell lysates as was previously described. Zandi et al. (1998) Science 281:1360-1363.
To explore a role of ISS-activated DNA-PK in IKK activation we tested whether affinity-purified DNA-PK can directly activate recombinant IKKα or IKKβ purified from Sf9 cells (Zandi et al., 1998, supra). […] Furthermore, although DNA-PKcs phosphorylated IκBα that activity was considerably lower than that achieved by IKKβ plus DNA-PK. […] To further confirm the activation of IKKβ by DNA-PK, we performed a coupled-kinase assay. Recombinant IKKβ was pre-incubated with DNA-PK in the presence or absence of ISS-ODN followed by immunoprecipitation of IKKβ and IκB kinase activity was measured. […] We next determined whether DNA-PK phosphorylates IKKβ.

phosphorylation of catalytically inactive IKKβ (KA) by DNA-PK (IKKβ; incubated with ISS-ODN): phosphorylated
kinase activity of IKKβ measured by IκB phosphorylation (IKKβ; recombinant IKKβ incubated with DNA-PK in the presence of ISS-ODN): further increased
Substance: 5′-TGACTGTGAACGTTCGAGATGA-3′ [ISS-ODN]
IL-6 and IL-12 induction ([1]; ATM-deficient BMDM): normal induction
IL-6 and IL-12 induction ([1]; DNA-PKcs-deficient BMDM in comparison to wt): Very low levels
IL-6 and IL-12 induction ([1]; IKKβ-/- Tnfr-/- BMDM): significantly reduced
IL-6 and IL-12 secretion ([1]; Ku70-/- and Ku80-/- BMDM as compared to wt, 24 hours): very low levels
activation of IKKβ by DNA-PK, coupled-kinase assay (IKKβ; pre-incubation with DNA-PK with or without ISS-ODN, then immunoprecipitation of IKKβ): only activates IKKβ in the presence of ISS-ODN
